Results: patent US7326562B2, “Biological indicator system to detect effectiveness of sterilization” (priority 1999, dated 2008)

Experiments:
[1] = test system: B. subtilis spores; assay: Ethylene oxide sterilization of biological indicator; viability by MALS, AODC and TSA plating; format: cell-based, Bacillus subtilis
Protocol: The ethylene oxide sterilizer used herein was operated at the Department of Veterans Affairs, Processing & Distribution Section, VAHMCS Baltimore Division (Baltimore, Md.). The sterilizing cycle was fixed to include a 2.5 hour exposure to ethylene oxide followed by a de-gassing cycle of 14.5 hours. A non-biological indicator was used to also monitor the sterilization. A surgicot 2 (Surgicot, Research Triangle Park, N.C.) laminated EO Gas Indicator (Propper Manufacturing Co., Long Island, N.Y.) which registers a change in color after correct processing has been accomplished was used for this purpose.
After completion of the EO sterilization cycle, the BI culture was diluted and the spores were suspended in 5% BHI, as described above. […] Following heat-shock, the sample was incubated at 37° C. for 24 hours to ensure that viable cells could be detected if present. […] Direct plating on TSA was also performed to further determine the presence of viable cells.

[2] = test system: B. subtilis (Difco) spores; assay: MALS (DAWN-F) measurement of spores directly after ozone treatment; format: cell-based, Bacillus subtilis; conditions: 0.3 ppm ozone; for MALS Intensity: no incubation
Text: The MALS instrument used was the DAWN Model F (Wyatt Technology Corp., Santa Barbara, Calif.), which is a flow-through instrument permitting the liquid from a sample to pass through a flow cell while continuously making measurements on the particles as they pass through the cell. Otherwise, the instrument is virtually identical to the DAWN Model B previously described elsewhere herein.
(§1) Ozone model CD-1B (Aqua-Flo, Inc., Baltimore, Md.), equipped with voltage regulator and oxygen flow controls was used to generate an ozone doses of 0.3 to 0.35 ppm in water. Ozone was generated from oxygen, supplied from an oxygen tank with O2 purity of more than about 99.9%. The generator was fitted with a voltage regulator and an oxygen flow regulator which enabled the precise setting of oxygen flow and voltage parameters such that the desired concentration of O3 could be maintained continuously. An oxygen flow rate of 8 ft^3/hr, at 5 psi, and approximately 70 to 80 amps was used to generate the concentrations specified. Excess (head) ozone was passed through a platinum catalyst that converted it back to oxygen where it was released into a vented chemical safety hood.
(§2) By the use of toggle switches, the ozone was directed through glass spargers into either of two specifically designated 2-liter Erlenmeyer flasks containing one liter of distilled water. Either a solution of a test chemical or a suspension of microorganisms, or both, was introduced into the flasks via tubes at the top, which passed into the flasks through rubber stoppers that sealed off the system. Samples could be withdrawn at the bottom of the flasks by opening a stopcock. The ozone concentrations were measured using chemical oxidation of indigo dye using an Ozone Pocket Colorimeter™ per manufacturer's instructions (HACH, Inc., Loveland, Colo.). Bacillus spores, at a concentration of 2×10^6 spores/milliliter were exposed to ozone for treatment times of 0, 5, 10, 15, 20, and 30 minutes, after which times they were measured by MALS, AODC, and CFU, respectively.
(§3) Ozone treatment of microbes is representative of cold sterilization and disinfection. […] Bacillus subtilis spores, at an concentration of 2×10^6 spores/milliliter were exposed to ozone at treatment times of 0, 5, 10, 15, 20, and 30 minutes, at which times they were measured by MALS, AODC, and CFU, respectively. All measurements were made on spores immediately and without the need for incubation. […] These measurements could be correlated directly with the cumulative concentration of ozone with increasing time of exposure. […] For a kill of […] (reduction from 2.1×10^6 to 1.8×10^3 spores/ml) the CT is 0.3 ppm×15 min=4.5. For a kill of 99.995% (reduction from 2.1×10^6 to 10 spores/mL), it is 0.3 ppm×30 min=9.
(§4) Table 2 gives a direct comparison of MALS, AODC, and CFU data for ozone treatment of B. subtilis spores over at 5-minute intervals over a 30-min period. All MALS and AODC measurements were made on spores immediately after treatment, and in the absence of incubation. Spores were plated immediately onto Trypticase Soy Agar after treatment to verify the number of surviving spores (CFU).
(§5) Ozone treatment of microbes is representative of cold sterilization and disinfection.

[3] = test system: B. subtilis (Difco) spores; assay: Acridine orange direct counts (AODC) of spores directly after ozone treatment; format: cell-based, Bacillus subtilis; conditions: 0.3 ppm ozone
Protocol: One ml samples of the culture to be counted were placed into small conical vials and the cell culture was fixed by adding 30 μl of a 36.5-38.0% formalin solution. After fixing the culture with formalin for at least about 30 minutes, the sample was either refrigerated or the AO staining procedure was carried to completion. To stain, 100 μl of a 0.1% acridine orange solution were added to the 1.0 ml spore sample and the dye was allowed to react with the spores for approximately five to eight minutes. Polycarbonate membranes (Poretics®, Osmonics, Livermore Calif.) 25 mm in diameter, 0.2 μm porosity, and black in color were soaked in sterile, distilled water for about 5 to 10 minutes. The membranes were then placed on a millipore filter apparatus. One ml aliquots from control or treated samples which had been stained with AO were placed onto the filters and vacuum was applied. The samples were filtered until the fluid was removed. Then, the filter apparatus container from which the fluid had been removed was rinsed with distilled water to ensure that all cells or spores were impinged upon the filter surface. The filter was laid upon a clean microscope slide, a drop of mineral oil applied to the surface of the membrane, and a clean coverslip was laid onto the membrane.
The AODC slide was examined under a microscope using ultraviolet optics (Olympus VANOX-T equipped for light, phase-contrast, and UV-fluorescence microscopy) which microscope was also fitted with photographic and TV Monitoring equipment. A scaled grid in the eyepiece of the microscope permitted the direct counting of the bacterial spores, bacilli, or other bodies that are stained by the dye and which fluoresce under the UV optics. To determine the number of cells/spores in a sample, the number counted in the entire grid was multiplied by 3.3×10^4 and by any dilution factor of the sample.
as §2, §4, §5

[4] = biological target: B. subtilis (Difco) spores; assay: Viable plate counts (CFU) on trypticase soy agar after ozone treatment; format: cell-based, Bacillus subtilis; conditions: for kill of the spore population / viable spores after treatment / CFU % of AODC / CFU % of Control / CFU/ml: 0.3 ppm ozone; for viable spores after treatment: reduction from 2.1×10^6; for CFU/ml: CFU after 24 hours incubation
Protocol: Dried spores from the sample vials or glass slides were eluted into sterile distilled water, plated directly, serially diluted (up to 10^−6), and plated onto TSA. After 18 to 24 hours of incubation at 37° C. for B. subtilis and 55° C. for B. stearothermophilus), the viable colony forming units (CFU) were counted. Plates that had no colonies were incubated for several more days (up to 7 days) to ensure that there were no damaged, but viable spores. From each of the same samples, Trypticase Soy broth was inoculated and incubated for up to seven days to ensure that there were no surviving bacteria in the negative assays.
The spores were eluted from the biological indicator slides or scintillation vials into 20 ml of sterile distilled water and 0.1 ml of the sample was spread onto TSA plates.
as §2, §3, §4, §5

[5] = test system: B. stearothermophilus spores; assay: Ozone treatment of B. stearothermophilus spores, MALS directly after treatment; format: cell-based, Bacillus stearothermophilus; conditions: about 0.3 ppm ozone, 5 to 20 min, 0 hours post-treatment
Text: as §1
By the use of toggle switches, the ozone was directed through glass spargers into either of two specifically designated 2-liter Erlenmeyer flasks containing one liter of distilled water. […] The ozone concentrations were measured using chemical oxidation of indigo dye using an Ozone Pocket Colorimeter™ per manufacturer's instructions (HACH, Inc., Loveland, Colo.). Bacillus spores, at a concentration of 2×10^6 spores/milliliter were exposed to ozone for treatment times of 0, 5, 10, 15, 20, and 30 minutes, after which times they were measured by MALS, AODC, and CFU, respectively. […]

[6] = test system: B. subtilis; conditions: 8% humidified ozone sterilization; cited from earlier work
[7] = test system: B. stearothermophilus; conditions: 8% humidified ozone sterilization; cited from earlier work
[8] = test system: B. subtilis spores
Protocol: The sterilization cycle requires about 70 minutes to complete. […] The STERRAD* employed a non-biological indicator comprising a Chemical Indicator strip supplied by the manufacturer which changed from red to yellow (or lighter) as compared to the color bar on the strip when exposed to H2O2 during the processing cycle. Also, a BI (B. subtilis spore strips) was incubated in a nutrient broth for 7 days to determine successful sterilization.
For all H2O2 sterilized cultures, the BI challenge was one ml of B. subtilis spores at a concentration of 1.7×10^8/ml which were air-dried onto a glass slide as described previously elsewhere herein. After completion of the STERRAD Cycle of approximately 70 minutes, the BI culture was diluted and the cells were suspended in 5% BHI, as described above. The culture was diluted to the same concentration as the control BI and the sample was heat-shocked at 70° C. for 10 minutes and incubated at 37° C. for 24 hours to detect any viable cells present. MALS measurements were obtained at 0 minutes, 30 minutes, 1 hour, 2 hours, 3 hours, 4 hours, and 4.75 hours, and parallel samples were obtained for analysis by AODC direct counting. Direct plating on TSA was also performed to determine the presence of viable cells. […]

Q: Which “bacterial growth of BI immersed in water” value ([1]; EO samples immersed within 10, 50, and 100 ml of water) does the source give for `C1CO1` [EO, ethylene oxide] here?
A: all positive for bacterial growth

Q: What about the “viable colonies on TSA plates” value ([1]; spores dried on glass slide, 2.5 hour EO exposure, heat-shocked, incubated in 5% BHI) of the same molecule?
A: no viable colonies

Q: And the “AODC direct counts during incubation” value ([1]; spores dried on glass slide, EO cycle, 0 to 4 hours incubation)?
A: no increase in direct counts

Q: Which “MALS % of control” value ([2]; 5 min treatment) does the source give for `O=[O+][O-]` [ozone] here?
A: 65.33%

Q: What about the “MALS Intensity” value ([2]; 5 min treatment, log weighted average of intensities at all detectors) of the same molecule?
A: 1591.92

Q: What about the “MALS % of control” value ([2]; 10 min treatment) of the same molecule?
A: 51.89%

Q: What about the “MALS Intensity” value ([2]; 10 min treatment) of the same molecule?
A: 1264.26

Q: What about the “MALS % of control” value ([2]; 15 min treatment) of the same molecule?
A: 42.67%

Q: What about the “MALS Intensity” value ([2]; 15 min treatment) of the same molecule?
A: 1039.64

Q: What about the “MALS % of control” value ([2]; 20 min treatment) of the same molecule?
A: 34.94%

Q: And the “MALS Intensity” value ([2]; 20 min treatment)?
A: 851.5

Q: What about the “MALS % of control” value ([2]; 30 min treatment) of the same molecule?
A: 27.96%

Q: What about the “MALS Intensity” value ([2]; 30 min treatment) of the same molecule?
A: 681.2

Q: What about the “AODC % of control” value ([3]; 5 min treatment) of the same molecule?
A: 68.3%

Q: What about the “AODC Spores per ml” value ([3]; 5 min treatment) of the same molecule?
A: 1.6 × 10^6 spores per ml

Q: What about the “AODC % of control” value ([3]; 10 min treatment) of the same molecule?
A: 49.5%

Q: What about the “AODC Spores per ml” value ([3]; 10 min treatment) of the same molecule?
A: 1.16 × 10^6 spores per ml

Q: What about the “AODC % of control” value ([3]; 15 min treatment) of the same molecule?
A: 55.1%

Q: What about the “AODC Spores per ml” value ([3]; 15 min treatment) of the same molecule?
A: 1.29 × 10^6 spores per ml

Q: And the “AODC % of control” value ([3]; 20 min treatment)?
A: 20.8%

Q: And the “AODC Spores per ml” value ([3]; 20 min treatment)?
A: 4.87 × 10^5 spores per ml

Q: And the “AODC % of control” value ([3]; 30 min treatment)?
A: 21.5%

Q: And the “AODC Spores per ml” value ([3]; 30 min treatment)?
A: 5.03 × 10^5 spores per ml

Q: What about the “kill of the spore population” value ([4]; 5 min) of the same molecule?
A: 41.4%

Q: And the “viable spores after treatment” value ([4]; 5 min)?
A: 1.23×10^6 spores/ml

Q: What about the “CFU % of AODC” value ([4]; 5 min treatment) of the same molecule?
A: 76.9%

Q: And the “CFU % of Control” value ([4]; 5 min treatment)?
A: 58.5%

Q: And the CFU/ml ([4]; 5 min treatment)?
A: 1.23 × 10^6 CFU/ml

Q: What about the “CFU % of AODC” value ([4]; 10 min treatment) of the same molecule?
A: 14.5%

Q: And the “CFU % of Control” value ([4]; 10 min treatment)?
A: 8.0%

Q: What about the CFU/ml ([4]; 10 min treatment) of the same molecule?
A: 1.68 × 10^5 CFU/ml

Q: What about the “kill of the spore population” value ([4]; 15 min) of the same molecule?
A: 91%

Q: What about the “viable spores after treatment” value ([4]; 15 min) of the same molecule?
A: 1.8×10^3 spores/ml

Q: What about the “CFU % of AODC” value ([4]; 15 min treatment) of the same molecule?
A: 0.14%

Q: And the “CFU % of Control” value ([4]; 15 min treatment)?
A: 0.09%

Q: What about the CFU/ml ([4]; 15 min treatment) of the same molecule?
A: 1.80 × 10^3 CFU/ml

Q: What about the “CFU % of AODC” value ([4]; 20 min treatment) of the same molecule?
A: 0.04%

Q: And the “CFU % of Control” value ([4]; 20 min treatment)?
A: 0.009%

Q: What about the CFU/ml ([4]; 20 min treatment) of the same molecule?
A: 1.82 × 10^2 CFU/ml

Q: What about the “kill of the spore population” value ([4]; 30 min) of the same molecule?
A: 99.995%

Q: What about the “viable spores after treatment” value ([4]; 30 min) of the same molecule?
A: 10 spores/mL

Q: And the “CFU % of AODC” value ([4]; 30 min treatment)?
A: 0.04%

Q: What about the “CFU % of Control” value ([4]; 30 min treatment) of the same molecule?
A: 0.00005%

Q: What about the CFU/ml ([4]; 30 min treatment) of the same molecule?
A: 10 CFU/ml

Q: And the “CT (concentration x time) value” ([4]; 0.3 ppm×5 min)?
A: 1.5

Q: What about the “CT (concentration x time) value” ([4]; 0.3 ppm×15 min) of the same molecule?
A: 4.5

Q: And the “CT (concentration x time) value” ([4]; 0.3 ppm×30 min)?
A: 9

Q: And the “change in spore concentrations (MALS)” value [5]?
A: decreases in spore concentrations with increasing exposure to ozone

Q: And the “D value (time required to reduce the number of spores by 1 log)” value [6]?
A: 5 minutes

Q: What about the “D value (time required to reduce the number of spores by 1 log)” value [7] of the same molecule?
A: 4.3 minutes

Q: Which “MALS N/No value” ([8]; H2O2-sterilized BI after 3 hours of incubation vs control at 0 minutes) does the source give for `OO` [H2O2, hydrogen peroxide] here?
A: 1.0

Q: What about the “growth on TSA plates” value ([8]; STERRAD* cycle about 70 minutes, 10 plates on each of triplicate samples) of the same molecule?
A: no growth on any plate
